Measured values: ChEMBL document CHEMBL5131465, “Pyrazoline analogues: Design, synthesis, and evaluation of anti-osteoporosis activity” (Bioorg Med Chem Lett, 2022)
Active and inactive are the calls of the source.

Legend:
Assay type in all cases: functional, cell-based
Calvarial osteoblast [1] = test: Induction of osteoblast differentiation in mouse calvarial osteoblasts assessed as increase in ALP activity at 0.000001 to 1 uM by spectrophotometric analysis; conditions: dose lower 1e-06 µM, dose upper 1.0 µM
Calvarial osteoblast [2] = test: Induction of osteoblast differentiation in mouse calvarial osteoblasts assessed as increase in BMP2 mRNA expression at 1 to 100 pM after 48 hrs by qPCR analysis; conditions: dose 1-100 pM
Calvarial osteoblast [3] = test: Induction of new bone formation in mouse calvarial osteoblasts assessed as increase in intracellular calcium level at 1 to 100 pM by Fluo-4AM dye based assay; conditions: dose 1-100 pM
Calvarial osteoblast [4] = test: Induction of osteoblast differentiation in mouse calvarial osteoblasts assessed as increase in RUNX2 protein expression at 1 to 100 pM after 48 hrs by western blot analysis; conditions: dose 1-100 pM
HBMSC = test: Induction of new bone formation in BMSC cells (unknown origin) assessed as increase in formation of mineralized nodules at 1 to 100 pM; conditions: Homo sapiens, dose 1-100 pM
Calvarial osteoblast [5] = test: Cytoprotective activity against serum deprivation-induced apoptosis in mouse calvarial osteoblasts assessed as reduction in apoptotic cells at 1 to 100 pM by Annexin/PI staining based flow cytometric analysis; conditions: dose 1-100 pM
Calvarial osteoblast [6] = test: Induction of osteoblast differentiation in mouse calvarial osteoblasts assessed as increase in BMP2 protein expression at 1 to 100 pM after 48 hrs by western blot analysis; conditions: dose 1-100 pM
Calvarial osteoblast [7] = test: Induction of osteoblast differentiation in mouse calvarial osteoblasts assessed as increase in Type-1 collagen protein expression at 1 to 100 pM after 48 hrs by western blot analysis; conditions: dose 1-100 pM
Calvarial osteoblast [8] = test: Induction of osteoblast differentiation in mouse calvarial osteoblasts assessed as increase in cell viability at 0.000001 to 1 uM by MTT assay; conditions: dose lower 1e-06 µM, dose upper 1.0 µM
Calvarial osteoblast [9] = test: Induction of osteoblast differentiation in mouse calvarial osteoblasts assessed as increase in Type-1 collagen mRNA expression at 1 to 100 pM after 48 hrs by qPCR analysis; conditions: dose 1-100 pM
Calvarial osteoblast [10] = test: Cytoprotective activity against serum deprivation-induced apoptosis in mouse calvarial osteoblasts assessed as increase in Bcl-2 protein expression at 1 to 100 pM by western blot analysis; conditions: dose 1-100 pM
Calvarial osteoblast [11] = test: Cytoprotective activity against serum deprivation-induced apoptosis in mouse calvarial osteoblasts assessed as reduction in BAX protein expression at 1 to 100 pM by western blot analysis; conditions: dose 1-100 pM
Calvarial osteoblast [12] = test: Induction of osteoblast differentiation in mouse calvarial osteoblasts assessed as increase in RUNX-2 mRNA expression at 1 to 100 pM after 48 hrs by qPCR analysis; conditions: dose 1-100 pM

Measured: Activity

CC1(C)C=Cc2ccc(O)c(-c3cc(-c4ccc(Cl)cc4)on3)c2O1
active: Calvarial osteoblast [1]

CC1(C)C=Cc2c(ccc(C3=NN(c4ccccc4)C(c4ccc(Cl)cc4)C3)c2O)O1 (stereo not drawn)
active: Calvarial osteoblast [1]

CC1(C)C=Cc2ccc(O)c(C3=NNC(c4ccc(Cl)cc4)C3)c2O1 (stereo not drawn)
active: all assays above

CC(C)=CCC1(C)C=Cc2ccc(O)c(C(=O)/C=C/c3ccc(Cl)cc3)c2O1 (stereo not drawn)
active: Calvarial osteoblast [1]

CC(=O)N1N=C(c2c(O)ccc3c2OC(C)(C)C=C3)CC1c1ccc(Cl)cc1 (stereo not drawn)
active: Calvarial osteoblast [1]

CC1(C)C=Cc2c(ccc(C(=O)/C=C/c3ccc(Cl)cc3)c2O)O1
active: Calvarial osteoblast [1]
